# Experimental data: patent US9399042B2, “Method for the removal of subcutaneous fat accumulations by subcutaneous lipolysis by administering a combination of glycyrrhizic acid and soybean phospholipids” (Lichtblick GmbH, priority 2010, dated 2016)
# “Also recorded” adds a separate entry of the source. Read-outs that look alike come from different tables or passages of the source.
# Assays:
# [1] = system: Adipose-Derived Stem Cells (ADSC); experiment: Propidium iodide (PI) staining of treated differentiated ADSCs (CLSM); format: cell-based, human
# Description: Further analysis of the cell-damaging effect of sodium deoxycholate on ADSCs was performed by PI staining of the treated cells and subsequent analysis with CLSM. The differentiated, mature adipocytes were treated with: • 0.05 mg/ml, 0.1 mg/ml and 0.5 mg/ml sodium deoxycholate for 4 hours.
# Then the cells were incubated in a medium containing 5 µg/ml propidium iodide for 5 minutes. This was followed by microscopic analysis with CLSM at a 63-fold magnification (FIG. 3c).
# (§1) After the incubation period (4 hours) the adipocytes were stained with 5 μm/ml PI and analyzed with CLSM. In the upper PI-row (a-e) fluorescence images of PI-stained cells are shown. In the lower PK-row (a-e) the corresponding phase contrast images are presented with the overlapping fluorescence images over one another.
# A further analysis of a cell-damaging effect of phosphatidyl choline on ADSCs was performed by PI staining of the treated cells and subsequent analysis with CLSM. The differentiated, mature adipocytes were treated with: • 5 mg/ml, 10 mg/ml and 15 mg/ml phosphatidyl choline for 4 hours.
# Then the cells were incubated in a medium containing 5 μg/ml propidium iodide for 5 minutes. This was followed by microscopic analysis with CLSM at a 63-fold magnification (FIG. 4c).
# as §1, with “μg/ml” for “μm/ml”, “another (Size bar=20 μm).” for “another.”
# [2] = system: Adipose-Derived Stem Cells (ADSC); experiment: Membrane damaging effect on differentiated ADSCs (light microscopy, CLSM); format: cell-based, human; conditions: 4 hours
# Text: The human subcutaneous adipose tissue can serve as a potential source of adult stem cells. These so-called “Adipose-Derived Stem Cells” (ADSC) are multipotent and may be differentiated by appropriate stimuli into various cell types, e.g. osteoblasts, chondrocytes, adipocytes. The isolation of ADSCs from human subcutaneous adipose tissue which is removed during plastic reductive surgery, is shown schematically in FIG. 2.
# First the fat was washed with buffer to remove hematopoietic cells, and then crushed. The resulting pieces of fatty tissue were digested with collagenase. By centrifugation of the digested tissue the stromal-vascular fraction was separated and the floated mature adipocytes were discarded. The stromal-vascular fraction in the pellet is composed of a heterogeneous cell population of blood cells, fibroblasts, pericytes, endothelial cells and preadipocytes.
# This cell population was transferred into a culture bottle with medium, wherein a portion of the cells adhered. By adding a suitable cocktail consisting of insulin, dexamethasone, indomethacin and isobutylmethylxanthine or consisting of insulin, cortisol, troglitazone, triiodothyronine and isobutylmethylxanthine the cells were stimulated for adipogenesis and an improved adipogenic differentiation was achieved.
# The ADSCs of Example 4 were stimulated by a hormone cocktail (insulin, cortisol, troglitazone, triiodothyronine and isobutylmethylxanthine) to adipogenesis and then differentiated for another 21 days into mature adipocytes.
# This was followed by a treatment with sodium deoxycholate. For this the following concentrations were used: • 0.01 mg/ml, 0.05 mg/ml, 0.075 mg/ml, 0.1 mg/ml and 0.5 mg/ml.
# The incubation period was 4 hours.
# This concentration range has been already proven to be effective in 3T3-L1. After the incubation period of 4 hours, the differentiated treated cells were subsequently viewed by light microscopy (FIG. 3a).
# Additionally, ADSCs treated with sodium deoxycholate were examined with CLSM. The differentiated, mature adipocytes were treated with: • 0.01 mg/ml, 0.05 mg/ml and 0.1 mg/ml sodium deoxycholate for 4 hours.
# This was followed by microscopic analysis with CLSM at a 63-fold magnification (FIG. 3b). […]
# [3] = system: 3T3-L1 cells; experiment: Membrane damaging / cytotoxic effect on differentiated 3T3-L1 cells (light microscopy, CLSM phase contrast); format: cell-based, murine; conditions: for In vitro Cell damaging causing concentration: single agent
# Description: In order to test in vitro the effects of phosphatidyl choline on the membrane integrity and stability, differentiated 3T3-L1 cells were incubated with different concentrations of phosphatidyl choline for 4 and 24 hours and then analyzed by light microscopy.
# As a model system, the murine preadipocyte cell line 3T3-L1 was used for the studies. 3T3-L1 cells were stimulated to adipogenesis by a conventional hormone cocktail (corticosterone, isobutylmethylxanthine, indomethacin, insulin) and differentiated for another 8 days to mature adipocytes.
# The mature adipocytes of the 3T3-L1 cells were treated with various concentrations of phosphatidyl choline.
# First, a phosphatidyl choline stock solution was prepared: • 500 mg/ml phosphatidyl choline dissolved in 70% ethanol
# The used concentrations of phosphatidyl choline were: • 1 mg/ml, 5 mg/ml, 10 mg/ml, 15 mg/ml, 20 mg/ml
# FIG. 1a: Phase contrast images of treated differentiated 3T3-L1 cells in 2D cell culture. The treatment was as follows: • (a) control=untreated cells in differentiation medium • (b) 1 mg/ml of phosphatidyl choline after 24 hours • (b) 5 mg/ml of phosphatidyl choline after 24 hours • (d) 10 mg/ml of phosphatidyl choline after 24 hours • (e) 15 mg/ml of phosphatidyl choline after 24 hours • (f) 20 mg/ml of phosphatidyl choline after 24 hours • (Size bar=100 μm).
# FIG. 1b: Phase contrast images using a CLSM at a 63-fold magnification of treated differentiated 3T3-L1 cells in 2D cell culture. The treatment was as follows: • (a) control=untreated cells in differentiation medium after 4 hours • (b) 1 mg/ml of phosphatidyl choline after 4 hours • (c) 5 mg/ml of phosphatidyl choline after 4 hours • (d) 10 mg/ml of phosphatidyl choline after 4 hours • (Size bar=20 μm).
# As a model system the murine preadipocyte cell line 3T3-L1 was used for the studies. 3T3-L1 cells were stimulated by a hormone cocktail (corticosterone, isobutylmethylxanthine, indomethacin, insulin) to adipogenesis and differentiated for another 8 days to mature adipocytes.
# The mature adipocytes of 3T3-L1 cells were incubated with various concentrations of phosphatidyl choline between 0.1 mg/ml and 50 mg/ml. The phosphatidyl choline was combined with 2-20 mg/ml glycyrrhizinate and 18-180 mg/ml maltose.
# The incubation of mature 3T3-L1 cells was performed for a duration of 4 hours with the substances combination.
# Then the treated cells were examined at a 63-fold magnification by light microscopy for a membrane destabilizing and cytotoxic effect.
# FIG. 9: Phase contrast images of treated differentiated 3T3-L1 cells. 3T3-L1 were stimulated by a hormonal induction cocktail to adipogenesis and then differentiated for 8 days. The mature adipocytes were treated for 24 hours with phosphatidyl choline and sodium deoxycholate from Lipostabil® with the following concentrations: • (a) untreated cells in differentiation medium, • (b) 0.01 mg/ml phosphatidyl choline+0.005 mg/ml Na-deoxycholate, • (c) 0.1 mg/ml phosphatidyl choline+0.05 mg/ml Na-deoxycholate, • (d) 0.25 mg/ml phosphatidyl choline+0.125 mg/ml Na-deoxycholate, • (e) 0.5 mg/ml phosphatidyl choline+0.25 mg/ml Na-deoxycholate, • (f) 1 mg/ml phosphatidyl choline+0.5 mg/ml Na-deoxycholate.
# The analysis was done using the light microscope. Cells with damaged membrane or cell fragments are marked examplary with black arrows, while free lipid droplets are indicated by white arrows.
# [4] = system: 3T3-L1 cells; experiment: Lipolysis assay (glycerol release) with differentiated 3T3-L1 cells; format: cell-based, murine; conditions: 10 μM, 4 hours, 3% BSA/PBS; positive control
# Description: 3T3-L1 cells were stimulated by a hormone cocktail to adipogenesis and differentiated for another 8 days to mature adipocytes. […] The lipolytic activity was measured using a lipolysis assay, as described below: The cleavage of triglycerides into glycerol and the three fatty acids is known as lipolysis. This process is catalyzed primarily by the hormone-sensitive lipase and the adipose triglyceride lipase. Using a lipolysis assay the lipolytic activity of cells can be detected. This assay is based on the measurement of glycerol emerged during lipolysis, which is secreted by the cells into the medium. The glycerol is metabolized by enzymatic reactions to glycerol-1-phosphate and then to dihydroxy acetone phosphate. Thereby hydrogen peroxide is produced, which is quantified photometrically with a peroxidase stain reaction. In order to be able to make statements about the lipolytic action of substances, they are compared with the basal lipolysis activity of the cells and with the lipolysis stimulated by the beta-adrenergic receptor. Such a stimulation can be caused by isoproterenol. FIG. 7: Graphical picture of the analysis of the lipolysis assay (μg glycerol/μg DNA) with treated differentiated 3T3-L1 cells. 3T3-L1 were stimulated by a hormonal induction cocktail to adipogenesis and then differentiated for 8 days. […]
compound,measurement,setting,value
sodium deoxycholate [Na-deoxycholate],PI staining (membrane integrity),"[1]; 0.05 mg/ml, 4 hours",no red-stained cells
same,PI staining (membrane integrity),"[1]; 0.1 mg/ml, 4 hours",individual red-stained cells
same,PI staining (membrane integrity),"[1]; 0.5 mg/ml, 4 hours",many and clearly red-stained cells
same,PI staining (membrane integrity),"[1]; 5, 10 and 15 mg/ml, 4 hours",no red-stained cells
same,membrane damaging / cytotoxic effect,[2]; 0.01 mg/ml,no effect on the cells; also recorded: no cytotoxic effect
same,membrane damaging / cytotoxic effect,[2]; 0.05 mg/ml,slight damages of the cell membrane
same,membrane damaging / cytotoxic effect,"[2]; 0.05 mg/ml, listed as Na-DC",injury
same,membrane damaging / cytotoxic effect,"[2]; 0.1 mg/ml, CLSM",strong membrane damage
same,membrane damaging / cytotoxic effect,[2]; 0.5 mg/ml,significantly toxic effect on the cells
same,membrane damaging / cytotoxic effect,"[2]; 0.5 mg/ml, listed as Na-DC",dead
same,membrane damaging effect,[3]; 0.05 mg/ml,membrane-damaging effects occurred
same,membrane damaging effect,[3]; 0.5 mg/ml,highly toxic
same,effect on the cell membrane,[3]; 20 mg/ml,clear destruction of the cell membrane
same,In vitro Cell damaging causing concentration,[3],≥ 0.05 mg/mL
same,In vitro Cell damaging causing concentration,[3]; listed as Na Deoxycholate,from 0.05 mg/ml
Triton,PI staining (membrane integrity),[1],red cells stained by PI
CC(C)NCC(O)c1ccc(O)c(O)c1 (centres unmarked) [isoproterenol],lipolytic activity compared to the basal level,[4],eight times the basal level
